Like-named read-outs stand apart in the source and are kept apart here.

One data set deals with FaDu tumour xenograft. The data set is described as follows: Clonogenic Survival, FaDu tumour xenograft-bearing Rag2M mice, compound ± radiation (CS-ER). The data set is classed as in vivo, mouse. The procedure:
FaDu tumour xenograft-bearing Rag2M mice were treated with single administrations of test compounds at indicated doses±radiation as indicated, at time 0.
Mice were irradiated at 1 h post compound administration (unless otherwise indicated), with 300 KV X-rays and a 10 mA current from a Precision XRAD 300 machine (USA) with a beam-hardening filter (2 mm Al+0.25 mm Cu+0.75 mm Sn) and an adjustable site to specimen distance (SSD) at a dose of 8-10 Gy, delivered at a rate of ˜1.05 Gy/min.
Mice were terminated at times after irradiation as indicated, and tumour tissues excised. A portion of tumour approximately 300-500 mg was briefly minced using sterile scissors and placed in a pre-weighed gentleMACS C tube (Miltenyi Biotec cat #130-093-237) and weighed with combined tumour+tube mass recorded. A 5 mL aliquot of enzyme cocktail comprising of trypsin/DNase/collagenase/EDTA-Na2 in PBS (1 mg/ml trypsin+0.26 mg/ml DNase+0.21 mg/ml collagenase+2 mM EDTA-Na2) was added to the tube, which is then run on the gentleMACS Dissociator disaggregation system. Tubes were then incubated at 37° C. and continually rotated for 20 min before again running on the gentleMACS Dissociator program. Samples were then diluted with 5 ml MEM medium containing 5% FBS and filtered (Falcon cell strainer 100 μm, cat #352360). After centrifugation (1100 rpm for 6 minutes at 4° C.) supernatant was aspirated and the cells resuspended in 4 ml cold growth medium (MEM+10% FBS)+50 ul DNase (5 mg/ml DNase solution). Cell numbers were counted from the same cell solution using a hemacytometer. Appropriate dilutions (control: 10,000 cells/ml; 8Gy: 400,000 cells/ml; drug+radiation treated; 500,000 cells/ml) were made and cells then plated in triplicate: control: 100 μl and 300 μl (1000 and 3000 cells/6 cm tissue culture plate); 8Gy: 30 μl, 105 μl and 350 μl (12000, 42000 cells/6 cm plates and 140000 cells/10 cm plate); drug+8Gy: 70 μl, 300p, 1.2 ml (35000 and 150000 cells/6 cm plates and 600000 cells/10 cm plates—only duplicate). Plates were incubated at 37° C. (in a 5% CO2, 5% O2 and balance N2 environment) for 14 days. For a final and accurate automated live-cell counting a solution of Hoechst33342 (0.01 mg/ml)+Propidium Iodide (0.004 mg/ml) in 0.9% saline was mixed with an appropriate cell number dilution of the samples in 96 well plates (50 ul staining solution+50 ul cell suspension of 10000 cells/ml) and images are taken of the wells and cell numbers are calculated by a computer program.
After 14 days plates were removed from the incubator, rinsed with PBS and stained with cold 2 g/L Malachite green oxalate salt solution (Sigma-Aldrich, cat #M6880) for 30 minutes at room temperature. Plates were rinsed with distilled water and dried. Pictures were obtained of the plates and colonies consisting of 50 or more cells were counted using a Stuart Scientific colony counter.
All plates with colonies were analyzed except when colony numbers were so high that the edges of individual colonies could not be determined accurately. Plating efficiency (PE) of each tumour sample was calculated first: PE is a ratio of the number of colonies to the number of cells seeded (sum of all the colonies countable in all the plates of the same sample divided by the sum of cells plated in the same plates). The PE of control tumours was averaged for the calculation of surviving fraction (SF): SF is based on the number of colonies formed in drug and/or radiation treated cells relative to that of untreated control (PE of treated tumor sample divided by PE of control). All treated data points were compared separately to the average of the controls. Finally a Clonogenic Survival Enhancement Ratio (CS-ER) was calculated: the SF of irradiated control groups were divided by the SF of treatment groups to determine treatment group-specific CS-ER values, and these were assigned scores based on defined response ranges: values>6=A, 4-6=B, <4=C.

Data set [1] in a line: Pharmacokinetic study in male Beagle dogs (IV and PO), plasma. Type of data set: in vivo, dog. The note with it: for AUC—% Extrap—obs / Cl_obs / Vz_obs / AUC(0-t) / half-life / AUC(0-inf) / Cmax: dog plasma; for F: dog; for AUC(0-t) / half-life / AUC(0-inf) / Cmax: male, Beagle; for AUC(0-inf): read-out: AUCINF—obs; for Cmax: read-out: Cmax (5 min). The procedure:
Pharmacokinetic studies were conducted to estimate plasma concentrations obtained after oral gavage (PO) and intravenous (IV) single administration of compounds administered to separate groups of male Beagle dogs. Three (3) dogs were administered a compound via the intravenous (IV) route at 3 mg/kg and 2.5 mL/kg, and plasma was collected at 12 timepoints over a 24-hour period. Following a 7 days washout period, the same dogs were administered the same compound via PO at 10 mg/kg and 5 mL/kg, and plasma was collected at 12 timepoints over a 48-hour period.
The in-vivo study plasma samples were analyzed using Ultra Performance Liquid Chromatography (UPLC) with tandem mass spectrometry (MS/MS) detection in multiple reaction monitoring (MRM) mode. A generic bioanalytical method involving plasma sample extraction and cleanup by protein precipitation with acetonitrile was used followed by UPLC-MS/MS analysis.
A brief example of a generic bioanalytical UPLC-MS/MS method used for analysis of compounds in the in-vivo study plasma samples is as follows. Plasma samples were spiked with internal standard prior to extraction and cleanup by protein precipitation with ice cold acetonitrile containing 0.1% (v/v) ammonium hydroxide at a ratio of 3:1 (solvent:plasma) and centrifuged at 18213 rcf for 15 minutes at 4° C. to pellet precipitates. Aliquots of supernatants were transferred to a 96-well plate and evaporated to dryness at 40° C. under a stream of nitrogen gas. Samples were reconstituted in 50:50 acetonitrile/10 mM ammonium acetate buffer pH 8, mixed thoroughly and analyzed using Ultra Performance Liquid Chromatography (UPLC) with tandem mass spectrometry (MS/MS) detection in multiple reaction monitoring (MRM) mode. Matrix-matched calibration standards and quality control (QC) samples were prepared in naïve C57Bl/6 mouse plasma. The UPLC column used was Waters Acquity UPLC BEH C18 1.7 um, 2.1 mm×50 mm (with guard column). The UPLC mobile phase consisted of: Mobile phase A: 10 mM ammonium acetate in Water pH 8, and Mobile phase B: Acetonitrile. Separation was accomplished with a linear gradient of 5% mobile phase B to 95% mobile phase B in 2 min, and a flow rate of 0.35 mL/min. The MS/MS data acquisition was accomplished using 3 MRM Transitions in ESI+ mode. Parent ion mass 508.37 m/z-to-Daughter ions (m/z) 117.05, 232.13 and 270.22. The quantitation of concentrations in test samples was achieved by matrix-matched calibration with normalization using an internal standard. Data acquisition and analysis were performed using Waters MassLynx software with TargetLynx application manager.
Estimation of PK parameters was performed using independent noncompartmental model method by PHOENIX WinNonlin software.

With `CN(C)C(=O)COc1cnc(N[C@H]2CC[C@@H](Oc3nc(N4CCOCC4)cc4ncccc34)CC2)nc1` [Compound 54, N,N-Dimethyl-2-((2-(((1s,4s)-4-((7-morpholino-1,6-naphthyridin-5-yl)oxy)cyclohexyl)amino)pyrimidin-5-yl)oxy)acetamide], the “CS-ER Range Score” value in the data set on FaDu tumour xenograft (100 mpk + 10 Gy, 0.5 h) is “B (4-6=B)”; in the data set with FaDu tumour xenograft (100 mpk + 10 Gy, 4 h), “A (values>6=A)”; in the data set with FaDu tumour xenograft (100 mpk + 10 Gy, 8 h), “B (4-6=B)”; with FaDu tumour xenograft (100 mpk + 10 Gy, 24 h), “A (values>6=A)”.
A word on the AUC(0-t): it is the area under the concentration-time curve up to a stated or last time point. By half-life is commonly meant the time needed for the level to fall by half in the phase considered. A low value points to rapid decline. The Cmax is the highest concentration seen after dosing. In the case of `O=C(COc1cnc(N[C@H]2CC[C@@H](Oc3nc(N4CCOCC4)cc4ncccc34)CC2)nc1)N1CCOCC1` [Compound 61, 1-Morpholino-2-((2-(((1s,4s)-4-((7-morpholino-1,6-naphthyridin-5-yl)oxy)cyclohexyl)amino)pyrimidin-5-yl)oxy)ethan-1-one], the “CS-ER Range Score” value in the data set on FaDu tumour xenograft (30 mpk + 8 Gy, 2 h) is “C (<4=C)”. Moreover, the “CS-ER Range Score” value in the data set on FaDu tumour xenograft (30 mpk + 8 Gy, 4 h) is “B (4-6=B)”. Moreover, in data set [1] (IV, 3 mg/kg), the “AUC—% Extrap—obs” value is listed as 0.79%, the Cl_obs was determined as 14.338 mL/min/kg, the Vz_obs was found to be 4.48058 L/kg and the exposure AUC(0-t) worked out at 3480 ng·h/mL. Moreover, in data set [1] (IV, 3 mg/kg), the half-life was 3.64 h, the AUC(0-inf) worked out at 3500 ng·h/mL and the Cmax amounted to 3700 ng/mL. In addition, in data set [1] (PO, 10 mg/kg), the “AUC—% Extrap—obs” value is recorded as 0.78%, the Cl_obs came out at 35.8008 mL/min/kg, the Vz_obs stood at 11.52897 L/kg and the F came out at 46%. In data set [1] (PO, 10 mg/kg), the AUC(0-t) is 5300 ng·h/mL, the half-life is 4.39 h, the AUC(0-inf) is 5340 ng·h/mL and the Cmax was 1070 ng/mL.
In the case of `CN1CCN(CCOc2cnc(N[C@H]3CC[C@@H](Oc4nc(N5CCOCC5)cc5ncccc45)CC3)nc2)CC1` [Compound 69, 5-(2-(4-Methylpiperazin-1-yl)ethoxy)-N-((1s,4s)-4-((7-morpholino-1,6-naphthyridin-5-yl)oxy)cyclohexyl)pyrimidin-2-amine], the “CS-ER Range Score” value in the data set with FaDu tumour xenograft (30 mpk + 8 Gy, 4 h) is reported as “C (<4=C)”. Also, in data set [1] (IV, 3 mg/kg), the “AUC—% Extrap—obs” value was 23.94%, the Cl_obs was 32.4562 mL/min/kg, the Vz_obs is 37.41197 L/kg and the AUC(0-t) amounted to 1180 ng·h/mL. In data set [1] (IV, 3 mg/kg), the half-life was 13.3 h, the AUC(0-inf) was found to be 1560 ng·h/mL and the Cmax is 397 ng/mL. Moreover, in data set [1] (PO, 10 mg/kg), the “AUC—% Extrap—obs” value is on record as 9.05%, the Cl_obs amounted to 27.6643 mL/min/kg, the Vz_obs came out at 32.69379 L/kg and the F was 143%. Moreover, in data set [1] (PO, 10 mg/kg), the AUC(0-t) was 5640 ng·h/mL, the half-life was 13.8 h, the AUC(0-inf) came out at 6220 ng·h/mL and the Cmax came out at 291 ng/mL.
Regarding `O=C(COc1cnc(N[C@H]2CC[C@@H](Oc3nc(N4CCOCC4)cc4ncccc34)CC2)nc1)N1CCC1` [Compound 75, 1-(Azetidin-1-yl)-2-((2-(((1s,4s)-4-((7-morpholino-1,6-naphthyridin-5-yl)oxy)cyclohexyl)amino)pyrimidin-5-yl)oxy)ethan-1-one], the “CS-ER Range Score” value was “B B (4-6=B)” in the data set with FaDu tumour xenograft (30 mpk + 8 Gy, 2 h) and “B B (4-6=B)” with FaDu tumour xenograft (30 mpk + 8 Gy, 4 h).
For `CN(C)C(=O)Cn1ccc2nc(N[C@H]3CC[C@@H](Oc4nc(N5CCOCC5)cc5ncccc45)CC3)ncc21` [Compound 86, N,N-Dimethyl-2-(2-(((1s,4s)-4-((7-morpholino-1,6-naphthyridin-5-yl)oxy)cyclohexyl)amino)-5H-pyrrolo[3,2-d]pyrimidin-5-yl)acetamide], the “CS-ER Range Score” value in the data set with FaDu tumour xenograft (30 mpk + 8 Gy, 2 h) is listed as “B B (4-6=B)”. Besides, the “CS-ER Range Score” value with FaDu tumour xenograft (30 mpk + 8 Gy, 4 h) is on record as “B B (4-6=B)”. In addition, in data set [1] (IV, 3 mg/kg), the “AUC—% Extrap—obs” value amounted to 5.80%, the Cl_obs was 28.2873 mL/min/kg, the Vz_obs was 28.9956 L/kg and the AUC(0-t) worked out at 1730 ng·h/mL. In data set [1] (IV, 3 mg/kg), the half-life was 13.1 h, the AUC(0-inf) is 1850 ng·h/mL and the Cmax was found to be 1730 ng/mL. In data set [1] (PO, 10 mg/kg), the “AUC—% Extrap—obs” value was determined as 0.51%, the Cl_obs came to 28.6397 mL/min/kg, the Vz_obs turned out to be 6.54871 L/kg and the F is listed as 105%. In addition, in data set [1] (PO, 10 mg/kg), the AUC(0-t) came to 6090 ng·h/mL, the half-life is 2.62 h, the AUC(0-inf) worked out at 6130 ng·h/mL and the Cmax amounted to 1540 ng/mL.
Regarding `CN(C)C(=O)Cn1c(=O)n(C2CCOCC2)c2nc(N[C@H]3CC[C@@H](Oc4nc(N5CCOCC5)cc5ncccc45)CC3)ncc21` [Compound 97, N,N-Dimethyl-2-(2-(((1s,4s)-4-((7-morpholino-1,6-naphthyridin-5-yl)oxy)cyclohexyl)amino)-8-oxo-9-(tetrahydro-2H-pyran-4-yl)-8,9-dihydro-7H-purin-7-yl)acetamide], the “CS-ER Range Score” value is reported as “C (<4=C)” in the data set with FaDu tumour xenograft (30 mpk + 8 Gy, 2 h) and “B (4-6=B)” in the data set with FaDu tumour xenograft (30 mpk + 8 Gy, 4 h).
`CN(C)C(=O)COc1ccc(C(=O)N[C@H]2CC[C@@H](Oc3nc(N4CCOCC4)cc4ncccc34)CC2)cn1` [Compound 117, 6-(2-(dimethylamino)-2-oxoethoxy)-N-((1s,4s)-4-((7-morpholino-1,6-naphthyridin-5-yl)oxy)cyclohexyl)nicotinamide]: the “CS-ER Range Score” value is listed as “C (<4=C)” in the data set on FaDu tumour xenograft (30 mpk + 8 Gy, 2 h) and “B (4-6=B)” in the data set on FaDu tumour xenograft (30 mpk + 8 Gy, 4 h).
`O=S(=O)(CF)Nc1cnc2cc(N3CCOCC3)nc(O[C@H]3CC[C@@H](Nc4ncccn4)CC3)c2c1` [Compound 192, 1-fluoro-N-(7-morpholino-5-(((1s,4s)-4-(pyrimidin-2-ylamino)cyclohexyl)oxy)-1,6-naphthyridin-3-yl)methanesulfonamide]: the “CS-ER Range Score” value in the data set with FaDu tumour xenograft (30 mpk + 8 Gy, 2 h) was “A (values>6=A)”; with FaDu tumour xenograft (30 mpk + 8 Gy, 4 h) it was “B (4-6=B)”.

Values taken from patent publication US20240239790A1, “7-Morpholino-1,6-Naphthyridin-5-yl Derivatives and Pharmaceutical Compositions Thereof Useful as DNA-PK Inhibitor” (adMare Therapeutics Society, priority 2021, published 2024).
